In PubChem BioAssay (NCI):
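Cells were grown in 96-well plates and exposed to each compound for 48 hours at five concentrations; endpoints were interpolated linearly between bracketing concentrations, or set to the highest concentration if not reached. Here, GI50 denotes the concentration required for 50% inhibition of growth. TGI marks complete inhibition of growth.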

What was measured:
Test in all cases: DTP human tumour cell line panel, 48 h
OVCAR-3 ovarian = system: OVCAR-3 ovarian
A549 NSCLC = system: A549 NSCLC
CCRF-CEM leukemia = system: CCRF-CEM leukemia
HCT-15 colon = system: HCT-15 colon
NCI/ADR-RES ovarian = system: NCI/ADR-RES ovarian
RXF 393 renal = system: RXF 393 renal
SW-620 colon = system: SW-620 colon
SR leukemia = system: SR leukemia
UACC-257 melanoma = system: UACC-257 melanoma
NCI-H522 lung = system: NCI-H522 lung

Row | SMILES | TGI (OVCAR-3 ovarian) | TGI (A549 NSCLC) | TGI (CCRF-CEM leukemia) | TGI (HCT-15 colon) | TGI (NCI/ADR-RES ovarian) | TGI (RXF 393 renal) | TGI (SW-620 colon) | TGI (SR leukemia) | TGI (UACC-257 melanoma) | TGI (NCI-H522 lung) | GI50 (OVCAR-3 ovarian) | GI50 (A549 NSCLC) | GI50 (CCRF-CEM leukemia) | GI50 (HCT-15 colon) | GI50 (NCI-H522 lung) | GI50 (NCI/ADR-RES ovarian) | GI50 (RXF 393 renal) | GI50 (SW-620 colon) | GI50 (SR leukemia) | GI50 (UACC-257 melanoma)
1 | Brc1ccc2c(-c3csc(-c4c[nH]c5cc(Br)ccc45)n3)c[nH]c2c1 | > 100 µM | > 50.7 µM | > 64.1 µM | > 89.9 µM | > 87 µM | 77.1 µM | 66.5 µM | > 41 µM | > 100 µM | – | – | – | – | – | – | – | – | – | – | –
2 | CC(=O)OC/C=C(/C=C/CNC1CCCCC1)OC(C)=O | 37.7 µM | > 100 µM | > 100 µM | 37 µM | 44.6 µM | 32.5 µM | 29.8 µM | 35.7 µM | 29.4 µM | 42.1 µM | – | – | – | – | – | – | – | – | – | –
3 | CCCCc1ccc(Nc2nc3c(ncn3COCCO)c(=O)[nH]2)cc1 | > 100 µM | > 100 µM | > 100 µM | > 100 µM | > 100 µM | > 100 µM | > 100 µM | > 100 µM | > 100 µM | > 100 µM | – | – | – | – | – | – | – | – | – | –
4 | O=C(Nc1ccccc1C(=O)NCCCO)/C(=C/c1ccccc1O)NC(=O)c1ccccc1 | > 100 µM | > 100 µM | > 100 µM | > 100 µM | 69.1 µM | > 86.8 µM | > 100 µM | > 100 µM | > 100 µM | > 100 µM | – | – | – | – | – | – | – | – | – | –
5 | Brc1cccc(N=NN2CCCC2)c1 | > 100 µM | – | > 100 µM | > 100 µM | > 100 µM | > 100 µM | > 100 µM | > 100 µM | > 100 µM | > 100 µM | – | – | – | – | – | – | – | – | – | –
6 | Cn1c([O-])nc(-n2cc[n+](C)c2)cc1=O | > 100 µM | > 100 µM | > 100 µM | > 100 µM | > 100 µM | > 100 µM | > 100 µM | > 100 µM | > 100 µM | – | – | – | – | – | – | – | – | – | – | –
7 | CCC(=O)Oc1c2ccsc2c(OC(=O)CC)c2ccsc12 | – | 4.51 µM | 9.52 µM | 1.07 µM | 0.832 µM | 2.69 µM | 2.33 µM | 0.806 µM | 0.333 µM | 2.06 µM | – | – | – | – | – | – | – | – | – | –
8 | Cc1cn([C@@H]2C[C@H]2CO)c(=O)[nH]c1=O | – | > 100 µM | > 100 µM | > 100 µM | > 100 µM | > 100 µM | > 100 µM | > 100 µM | > 100 µM | > 100 µM | – | – | – | – | – | – | – | – | – | –
9 | Brc1ccc2c(-c3csc(-c4c[nH]c5ccc(Br)cc45)n3)c[nH]c2c1 | 23.2 µM | 19 µM | > 29.2 µM | 14.5 µM | 21.2 µM | 9.55 µM | 28.3 µM | > 100 µM | 23.1 µM | 4.95 µM | – | – | – | – | – | – | – | – | – | –
10 | C=C1CC(C)(c2ccc(Nc3nc4ccccc4c4occc34)cc2)OC1=O (stereo not given) | 12.9 µM | 23.7 µM | 3.76 µM | 4.73 µM | 20.1 µM | 4.92 µM | – | 4.53 µM | 0.164 µM | – | – | – | – | – | – | – | – | – | – | –
11 | NC(N)=NS(=O)(=O)c1ccc(NC(=O)c2ccc3nc4ccccc4c(Nc4ccc(S(=O)(=O)N=C(N)N)cc4)c3c2)cc1 | > 100 µM | > 100 µM | > 100 µM | > 100 µM | > 100 µM | > 100 µM | > 100 µM | > 100 µM | > 100 µM | > 100 µM | – | – | – | – | – | – | – | – | – | –
12 | N#Cc1c(-c2ccc(F)cc2)nc(N/N=C/c2c[nH]c3ccccc23)nc1N1CCOCC1 | 35 µM | 69.9 µM | > 100 µM | 4.56 µM | > 100 µM | 3.97 µM | 4.69 µM | 24 µM | 4.87 µM | 7.15 µM | 11.5 µM | 3.99 µM | 3.43 µM | 0.784 µM | 2.59 µM | 13.2 µM | 1.19 µM | 1.58 µM | 0.215 µM | 2.2 µM
13 | c1ccc2c3c(c(N4CCOCC4)nc2c1)CCCC3 | > 100 µM | > 100 µM | > 100 µM | > 100 µM | > 100 µM | 46.8 µM | > 100 µM | > 100 µM | > 100 µM | > 100 µM | – | – | – | – | – | – | – | – | – | –
14 | Cc1cn(C(C)OCCN2C(=O)c3ccccc3C2=O)c(=O)[nH]c1=O (stereo not given) | > 100 µM | > 100 µM | > 100 µM | > 100 µM | > 100 µM | > 100 µM | > 100 µM | > 100 µM | > 100 µM | – | – | – | – | – | – | – | – | – | – | –
15 | O=c1[nH]nc(-c2ccccc2)c2[nH]c(-c3ccccc3)cc12 | > 100 µM | > 100 µM | > 100 µM | > 100 µM | > 100 µM | > 100 µM | > 100 µM | > 100 µM | – | – | – | – | – | – | – | – | – | – | – | –
16 | Nc1ccc(S(=O)(=O)Nc2nc3ccccc3nc2N2CCCCC2)cc1 | > 100 µM | > 100 µM | > 100 µM | > 100 µM | > 100 µM | > 100 µM | > 100 µM | > 100 µM | > 100 µM | > 100 µM | – | – | – | – | – | – | – | – | – | –
17 | NC(=O)c1cc2ccccc2o/c1=N/O | > 100 µM | > 100 µM | > 100 µM | > 100 µM | > 100 µM | > 100 µM | > 100 µM | > 100 µM | > 100 µM | > 100 µM | – | – | – | – | – | – | – | – | – | –
18 | COc1cc(CN2CCCCC2)cc2cc(C(=O)O)c(=O)oc12 | > 100 µM | > 100 µM | > 100 µM | > 100 µM | > 100 µM | > 100 µM | > 100 µM | > 100 µM | > 100 µM | > 100 µM | – | – | – | – | – | – | – | – | – | –
19 | CC(C)(C)c1cc(/C=C(\C#N)C(=O)NCCO)cc(C(C)(C)C)c1O | 33.5 µM | > 100 µM | 46.3 µM | 58.6 µM | 75.3 µM | 57.6 µM | 97 µM | 49.4 µM | 35 µM | 37 µM | – | – | – | – | – | – | – | – | – | –
20 | CC1(C)C=C(S(=O)(=O)c2ccccc2)Oc2ccccc2O1 | > 100 µM | > 100 µM | > 100 µM | > 100 µM | > 100 µM | > 100 µM | > 100 µM | > 100 µM | > 100 µM | > 100 µM | – | – | – | – | – | – | – | – | – | –
21 | C=C1C(=O)O[C@@]23C1CC[C@@H](C)C2CC[C@@]1(C)OC31 (stereo not given in full) | 13.4 µM | > 100 µM | 15.9 µM | 30.3 µM | 48.4 µM | 39.9 µM | 37.5 µM | 33.2 µM | 24.4 µM | 20.2 µM | – | – | – | – | – | – | – | – | – | –
